Reference: ChEMBL document CHEMBL1938368, “Structure-activity relationship of naphthaldehydethiosemicarbazones in melanogenesis inhibition” (Bioorg Med Chem Lett, 2012)

Assays:
B16 [1] = assay: Antimelanogenic activity at alpha-MSH-stimulated mouse melanoma B16 cells at 10 uM after 3 days by spectrophotometry; type: functional; conditions: B16, 72 h
B16 [2] = assay: Antimelanogenic activity at alpha-MSH-stimulated mouse melanoma B16 cells after 3 days by spectrophotometry; type: functional, cell-based; conditions: B16, 72 h

Row | SMILES | inhibition at 10 µM (B16 [1]) | IC50 (B16 [2])
1 | CN(C)C(=S)N/N=C/c1cccc2ccccc12 | > 100% | 0.28 µM
2 | Cc1ccc(NC(=S)N/N=C/c2cccc3ccccc23)cc1 | > 100% | 0.58 µM
3 | S=C(NCc1ccccc1)N/N=C/c1cccc2ccccc12 | > 100% | 0.27 µM
4 | COc1ccc(NC(=S)N/N=C/c2cccc3ccccc23)cc1 | > 100% | 0.86 µM
5 | S=C(N/N=C/c1cccc2ccccc12)Nc1ccc(Cl)cc1 | > 100% | 1.9 µM
6 | COc1ccccc1NC(=S)N/N=C/c1cccc2ccccc12 | > 100% | 0.92 µM
7 | NC(=O)N/N=C/c1cccc2ccccc12 | < 10% | > 100 µM
8 | CN(/N=C/c1cccc2ccccc12)C(N)=S | > 100% | 1.6 µM
9 | COc1cccc(NC(=S)N/N=C/c2cccc3ccccc23)c1 | > 100% | 0.83 µM
10 | Cc1ccccc1NC(=S)N/N=C/c1cccc2ccccc12 | > 100% | 0.49 µM
11 | CCNC(=S)N/N=C/c1cccc2ccccc12 | > 100% | 1.1 µM
12 | CN(C)C(=S)N(C)/N=C/c1cccc2ccccc12 | 76% | 8.6 µM
13 | S=C(N/N=C/c1cccc2ccccc12)Nc1ccccc1 | > 100% | 0.5 µM
14 | S=C(N/N=C/c1cccc2ccccc12)NC1CCCCC1 | > 100% | 0.29 µM
15 | Cc1cccc(NC(=S)N/N=C/c2cccc3ccccc23)c1 | > 100% | 0.45 µM
16 | CNC(=S)N/N=C/c1cccc2ccccc12 | > 100% | 2 µM
